Measurements reported in PubChem BioAssay AID1918938 (Molecular Pharmacology Branch, DTP, NCI, 2023).

System: 556581-035-R-J1-PDC complex spheroid viability
Test: Anticancer human tumor 556581-035-R-J1-PDC patient-derived ovarian carcinoma cell line growth inhibition
Details: for IC50: curve of first compound; for viability, T/C: stronger effect = lower value
Method in brief: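 Complex spheroids of tumor cells with HUVEC and human MSCs, exposed to iadademstat combined with other agents. Each agent tested in half-log steps from near clinical Cmax (else 10 microM top), DMSO ≤0.25%.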

[1] = second compound 0.1 µM, first compound 0.00949 µM
[2] = second compound 0.1 µM, first compound 0.03 µM
[3] = second compound 0.1 µM, first compound 0.0949 µM
[4] = second compound 0.1 µM, first compound 0.3 µM
[5] = second compound 0.1 µM, first compound 0.949 µM
[6] = second compound 0.1 µM, first compound 3 µM
[7] = second compound 0.316 µM, first compound 0.00949 µM
[8] = second compound 0.316 µM, first compound 0.03 µM
[9] = second compound 0.316 µM, first compound 0.0949 µM
[10] = second compound 0.316 µM, first compound 0.3 µM
[11] = second compound 0.316 µM, first compound 0.949 µM
[12] = second compound 0.316 µM, first compound 3 µM
[13] = second compound 1 µM, first compound 0.00949 µM
[14] = second compound 1 µM, first compound 0.03 µM
[15] = second compound 1 µM, first compound 0.0949 µM
[16] = second compound 1 µM, first compound 0.3 µM
[17] = second compound 1 µM, first compound 0.949 µM
[18] = second compound 1 µM, first compound 3 µM
[19] = second compound 3.16 µM, first compound 0.00949 µM
[20] = second compound 3.16 µM, first compound 0.03 µM
[21] = second compound 3.16 µM, first compound 0.0949 µM
[22] = second compound 3.16 µM, first compound 0.3 µM
[23] = second compound 3.16 µM, first compound 0.949 µM
[24] = second compound 3.16 µM, first compound 3 µM
[25] = second compound 10 µM, first compound 0.00949 µM
[26] = second compound 10 µM, first compound 0.03 µM
[27] = second compound 10 µM, first compound 0.0949 µM
[28] = second compound 10 µM, first compound 0.3 µM
[29] = second compound 10 µM, first compound 0.949 µM
[30] = second compound 10 µM, first compound 3 µM
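Also: spheroids exposed to agents for seven days.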
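For viability, T/C in this document: 100% = DMSO vehicle control wells.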

Structure (SMILES): NS(=O)(=O)OCC1CC(n2ccc3c(NC4CCc5ccccc54)ncnc32)CC1O (stereo not given) + NC1CC1c1ccc(-c2cccc(O)c2)cc1
- IC50 (second compound 0.1 µM): 321 nM
- IC50 (second compound 0.316 µM): 280 nM
- IC50 (second compound 1 µM): 334 nM
- IC50 (second compound 3.16 µM): 255 nM
- IC50 (second compound 10 µM): 134 nM
- viability, T/C [1]: 104%
- viability, T/C [2]: 81.6%
- viability, T/C [3]: 66.4%
- viability, T/C [4]: 53.8%
- viability, T/C [5]: 35.4%
- viability, T/C [6]: 15.2%
- viability, T/C [7]: 96.3%
- viability, T/C [8]: 81%
- viability, T/C [9]: 66.1%
- viability, T/C [10]: 53.6%
- viability, T/C [11]: 27%
- viability, T/C [12]: 18.5%
- viability, T/C [13]: 92.5%
- viability, T/C [14]: 81.4%
- viability, T/C [15]: 77.5%
- viability, T/C [16]: 51.7%
- viability, T/C [17]: 29.5%
- viability, T/C [18]: 20.7%
- viability, T/C [19]: 98.9%
- viability, T/C [20]: 75.7%
- viability, T/C [21]: 68.5%
- viability, T/C [22]: 45.9%
- viability, T/C [23]: 32.6%
- viability, T/C [24]: 17.4%
- viability, T/C [25]: 87.8%
- viability, T/C [26]: 74.4%
- viability, T/C [27]: 56.4%
- viability, T/C [28]: 35.2%
- viability, T/C [29]: 20.3%
- viability, T/C [30]: 8.52%

Structure (SMILES): Nc1ccccc1NC(=O)c1ccc(CNC(=O)OCc2cccnc2)cc1 + NC1CC1c1ccc(-c2cccc(O)c2)cc1
- IC50 (second compound 0.1 µM): 87.6 nM
- IC50 (second compound 0.316 µM): 95.3 nM
- IC50 (second compound 1 µM): 85.9 nM
- IC50 (second compound 3.16 µM): 97.4 nM
- IC50 (second compound 10 µM): 94 nM
- viability, T/C [1]: 91.9%
- viability, T/C [2]: 77.1%
- viability, T/C [3]: 47.3%
- viability, T/C [4]: 21.1%
- viability, T/C [5]: 6.12%
- viability, T/C [6]: 0.47%
- viability, T/C [7]: 92.1%
- viability, T/C [8]: 70.1%
- viability, T/C [9]: 54.5%
- viability, T/C [10]: 23.7%
- viability, T/C [11]: 8.22%
- viability, T/C [12]: 0.62%
- viability, T/C [13]: 92.8%
- viability, T/C [14]: 64.3%
- viability, T/C [15]: 55.9%
- viability, T/C [16]: 24.9%
- viability, T/C [17]: 9.16%
- viability, T/C [18]: 5.91%
- viability, T/C [19]: 90.2%
- viability, T/C [20]: 72.7%
- viability, T/C [21]: 51.5%
- viability, T/C [22]: 26.6%
- viability, T/C [23]: 10.4%
- viability, T/C [24]: 0.51%
- viability, T/C [25]: 86.5%
- viability, T/C [26]: 69.1%
- viability, T/C [27]: 46.5%
- viability, T/C [28]: 37.3%
- viability, T/C [29]: 10.1%
- viability, T/C [30]: 0.3%

Structure (SMILES): O=C(C=Cc1cccc(S(=O)(=O)Nc2ccccc2)c1)NO + NC1CC1c1ccc(-c2cccc(O)c2)cc1
- IC50 (second compound 0.1 µM): 65.8 nM
- IC50 (second compound 0.316 µM): 70.7 nM
- IC50 (second compound 1 µM): 69.2 nM
- IC50 (second compound 3.16 µM): 66.5 nM
- IC50 (second compound 10 µM): 63.6 nM
- viability, T/C [1]: 85.4%
- viability, T/C [2]: 75.1%
- viability, T/C [3]: 36.9%
- viability, T/C [4]: 14.6%
- viability, T/C [5]: 1.81%
- viability, T/C [6]: 0.79%
- viability, T/C [7]: 78.8%
- viability, T/C [8]: 69.1%
- viability, T/C [9]: 43.9%
- viability, T/C [10]: 8.31%
- viability, T/C [11]: 0.59%
- viability, T/C [12]: 0.61%
- viability, T/C [13]: 79.5%
- viability, T/C [14]: 72.9%
- viability, T/C [15]: 40.6%
- viability, T/C [16]: 13.6%
- viability, T/C [17]: 0.92%
- viability, T/C [18]: 0.19%
- viability, T/C [19]: 82.8%
- viability, T/C [20]: 74.1%
- viability, T/C [21]: 37.5%
- viability, T/C [22]: 16.5%
- viability, T/C [23]: 0.75%
- viability, T/C [24]: 1.27%
- viability, T/C [25]: 74%
- viability, T/C [26]: 65.2%
- viability, T/C [27]: 41.4%
- viability, T/C [28]: 17.4%
- viability, T/C [29]: 0.56%
- viability, T/C [30]: 1.22%
